Assay results published in patent US20250215032A1, “PHOSPHORYLPURINONE COMPOUNDS FOR THE TREATMENT OF CANCER” (Hoffmann-La Roche Inc., priority 2022, published 2025).
In brackets after ≈: the same amount, converted by molar mass. Read-outs that look alike come from different tables or passages of the source.

Key:
[1] = Lyophilisation solubility assay (LYSA), kinetic solubility; format: physicochemical; conditions: aqueous buffer; 0.05 M phosphate buffer (pH 6.5), from 10 mM DMSO stock after evaporation
Text: The solubility of a substance can be broadly defined as the maximum amount of the substance that dissolves in a specified volume of solvent. However, it is important to understand that the solubility of a compound can vary drastically depending on the condition of the solvent (e.g. temperature and pH) and the physiochemical properties of the compound (e.g. ionisation and crystallinity). These critical factors need to be considered during solubility determination in order to generate high quality solubility data that will be useful in the progression of compounds through the discovery and development stages. The kinetic solubility of a compound is the maximum solubility of the fastest precipitating species of the compound; this is often measured using a stock solution of the compound dissolved in an organic solvent, typically dimethyl sulfoxide (DMSO), as the starting material. […] The precipitate formed, which is rarely determined during the assessment, could be any combination of various possible solid states of the compound. Given the level of supersaturation that could occur when an organic solvent is diluted in water, kinetic solubility values are typically higher than the corresponding thermodynamic (equilibrium) solubility values. Solubility assays in the early discovery process often determine kinetic solubility. The lyophilisation solubility assay (LYSA) is a high throughput kinetic solubility assay for the early drug discovery process.
Samples were prepared in duplicate from 10 mM DMSO stock solution. After evaporation of DMSO with a centrifugal vacuum evaporator, the compounds were solved in 0.05 M phosphate buffer (pH 6.5), stirred for one hour and shaken for two hours. After one night, the solutions were filtered using a microtiter filter plate. Then the filtrate and its 1/10 dilution were analyzed by HPLC-UV. […] The results were in μg/mL. […] It should be noted that metastable solid phases may form during the evaporation step, and the method might therefore produce higher solubility values than assays using the stable polymorph as the starting material.

[2] = Thermodynamic solubility assay (THESA), equilibrium solubility; format: physicochemical; conditions: 22 °C, aqueous buffer, thermodynamic from solid; 50 mM phosphate buffer (pH 6.5), room temperature (22±2° C.)
Experimental: The thermodynamic (equilibrium) solubility is the saturation solubility of a compound at the end of the dissolution process, where the dissolved compound is in equilibrium with the undissolved material in excess. The thermodynamic solubility is determined by dispensing a solid compound into a solvent. This is often deemed as the true solubility of the compound and is a critical piece of information in formulation development. The thermodynamic solubility assay (THESA) is a widely used tool for the measurement of equilibrium solubility for the later drug discovery process and is considered as a gold standard solubility assay.
Approximately 1-2 mg of each compound was added into 300 μL of 50 mM phosphate buffer (pH 6.5) at room temperature (22±2° C.). Each sample is placed in a microanalysis tube, which was sonicated for 1 h and shaken for 2 h. All suspensions were left overnight (about 16 h). On the next day, the samples were filtered into a V-bottom plate with a micronic filterplate to separate the solid material from the solution. Then, all solutions were diluted into 96 well V-bottom microplates and analyzed by UPLC-UV. The calibration line was established by UPLC using 5 different dilutions of the compound in a DMSO stock solution, made in micronic tubes (concentration approximately 1 mg/mL). Dilutions took place with DMSO. From this regression equation the solubility of the compound was determined. In cases where the drug was completely dissolved in the buffer, the value for equilibrium solubility was assumed to be higher than the value determined by UPLC and reported as such.

[3] = Dissolution test in fasted state simulated intestinal fluid (FaSSIF); format: physicochemical; conditions: FaSSIF pH 6.5, room temperature
Experimental: 0.420 g of NaOH (pellets), 3.954 g of NaH2PO4 (monohydrate) and 6.186 g of NaCl were dissolved in about 0.9 L of purified water. The pH was adjusted to 6.5 with either 1 N NaOH or 1 N HCl. The total volume of the mixture was made up to 1.0 L with purified water at room temperature.
To about 50 mL of blank FaSSIF buffer was added 0.2240 g of SIF Powder Original (Biorelevant.com Ltd, Product code: FFF03, UK), the mixture was stirred until powder was completely dissolved. The total volume of the mixture was made up to 100 mL with blank FaSSIF buffer at room temperature.
(§1) Approximately 1-2 mg of each compound was added in excess into […] of buffer at room temperature. Each sample is placed in a microanalysis glass tube, which was sonicated for 1 h and agitated for 2 h. All suspensions were left overnight (about 16 h). On the next day, all pH values were measured with a pH-meter and the samples were filtered into a V-bottom plate with a micronic filterplate to separate the solid material from the solution. Then, all solutions were diluted into 96 well V-bottom microplates and analyzed by UPLC-UV.
(§2) The calibration line was established by UPLC using 5 different dilutions of the compound in a DMSO stock solution, made in micronic tubes (concentration approximately 1 mg/mL). Dilutions took place with DMSO (in special circumstances, with acetonitrile, or 80% HCl 0.1 N/20% acetonitrile). From this regression equation the solubility of the compound was determined. In cases where the compound was completely dissolved in the buffer, the value for equilibrium solubility was assumed to be higher than the value determined by UPLC and reported as such.

[4] = Dissolution test in fed state simulated intestinal fluid (FeSSIF); format: physicochemical; conditions: FeSSIF pH 5, room temperature
Experimental: 4.040 g of NaOH (pellets), 8.650 g of glacial acetic acid and 11.874 g of NaCl were dissolved in about 0.9 L of purified water. The pH was adjusted to 5 with either 1 N NaOH or 1 N HCl. The total volume of the mixture was made up to 1.0 L with purified water at room temperature.
To about 50 mL of blank FeSSIF buffer was added 1.120 g of SIF Powder Original (Biorelevant.com Ltd, Product code: FFF03, UK), the mixture was stirred until powder was completely dissolved. The total volume of the mixture was made up to 100 mL with blank FeSSIF buffer at room temperature.
as §1, §2

[5] = target: T1, human TLR7 (Homo sapiens, UniProt Q9NYK1); test: HEK293-Blue-hTLR7 cells assay (SEAP reporter, NF-κB activation)
T1 sequence (Q9NYK1 27-1049): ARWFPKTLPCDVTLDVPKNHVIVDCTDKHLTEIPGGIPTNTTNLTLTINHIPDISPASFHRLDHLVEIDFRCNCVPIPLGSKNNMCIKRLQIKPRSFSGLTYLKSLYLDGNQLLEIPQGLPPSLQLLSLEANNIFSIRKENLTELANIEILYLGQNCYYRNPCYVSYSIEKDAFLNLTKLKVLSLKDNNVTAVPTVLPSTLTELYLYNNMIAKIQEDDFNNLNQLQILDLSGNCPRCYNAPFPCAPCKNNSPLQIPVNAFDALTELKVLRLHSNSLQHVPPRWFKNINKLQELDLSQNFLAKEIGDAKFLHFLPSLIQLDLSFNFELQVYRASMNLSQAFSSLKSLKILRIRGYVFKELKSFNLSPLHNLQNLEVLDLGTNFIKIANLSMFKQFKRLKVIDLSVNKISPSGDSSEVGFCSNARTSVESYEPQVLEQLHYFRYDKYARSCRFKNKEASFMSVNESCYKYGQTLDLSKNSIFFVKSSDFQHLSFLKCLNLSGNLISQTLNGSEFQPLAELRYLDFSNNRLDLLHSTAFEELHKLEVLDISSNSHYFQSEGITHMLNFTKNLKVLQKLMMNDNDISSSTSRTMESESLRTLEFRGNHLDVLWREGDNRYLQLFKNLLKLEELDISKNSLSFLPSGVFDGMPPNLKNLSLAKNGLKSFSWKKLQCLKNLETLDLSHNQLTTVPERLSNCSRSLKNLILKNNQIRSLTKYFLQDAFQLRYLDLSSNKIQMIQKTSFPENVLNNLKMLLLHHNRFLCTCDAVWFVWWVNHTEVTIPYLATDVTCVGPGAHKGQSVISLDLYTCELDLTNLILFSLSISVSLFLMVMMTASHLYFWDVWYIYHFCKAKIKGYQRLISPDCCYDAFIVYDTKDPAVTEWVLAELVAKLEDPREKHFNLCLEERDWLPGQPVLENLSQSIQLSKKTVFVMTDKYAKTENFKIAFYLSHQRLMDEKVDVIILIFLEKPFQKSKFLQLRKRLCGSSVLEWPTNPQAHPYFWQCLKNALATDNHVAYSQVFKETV
Text: A stable HEK293-Blue-h TLR7 cell line was purchased from InvivoGen (Cat. #: hkb-htlr7, San Diego, California, USA). These cells were designed for studying the stimulation of human TLR7 by monitoring the activation of NF-κB. A SEAP (secreted embryonic alkaline phosphatase) reporter gene was placed under the control of the IFN-β minimal promoter fused to five NF-κB and AP-1-binding sites. The SEAP was induced by activating NF-κB and AP-1 via stimulating HEK-Blue hTLR7 cells with TLR7 ligands. Therefore the reporter expression was regulated by the NF-κB promoter upon stimulation of human TLR7 for 20 hrs. The cell culture supernatant SEAP reporter activity was determined using QUANTI-Blue™ kit (Cat. #: rep-qb1, Invivogen, San Diego, Ca, USA) at a wavelength of 640 nm, a detection medium that turns purple or blue in the presence of alkaline phosphatase.
HEK293-Blue-hTLR7 cells were incubated at a density of 250,000˜450,000 cells/mL in a volume of 180 μL in a 96-well plate in Dulbecco's Modified Eagle's medium (DMEM) containing 4.5 g/L glucose, 50 U/mL penicillin, 50 mg/mL streptomycin, 100 mg/mL Normocin, 2 mM L-glutamine, 10% (V/V) heat-inactivated fetal bovine serum for 24 hrs. Then the HEK293-Blue-hTLR7 cells were incubated with addition of 20 μL test compound in a serial dilution in the presence of final DMSO at 1% and perform incubation under 37° C. in a CO2 incubator for 20 hrs.

With CC[P@@](C)(=O)c1nc(N)c2[nH]c(=O)n(Cc3ccc(OCCN(C)C)nc3)c2n1 [Example 16-A, 6-amino-9-[[6-[2-(dimethylamino)ethoxy]-3-pyridyl]methyl]-2-[(R)-ethyl(methyl)phosphoryl]-7H-purin-8-one] the solubility kinetic [1] was > 560 µg/mL, the solubility thermodynamic [2] was 1900 µg/mL (≈ 4.53 mM) and the “FaSSIF” value [3] was 1799 µg/mL. The “FeSSIF” value [4] was 2371 µg/mL.

For CCCS(=N)(=O)c1nc(N)c2[nH]c(=O)n(Cc3ccc(Cl)nc3)c2n1 (stereo not drawn) [RO14, reference compound], the solubility kinetic [1] was 69 µg/mL, the solubility thermodynamic [2] was 33 µg/mL (≈ 0.0864 mM) and the “FaSSIF” value [3] was 14 µg/mL. For the same molecule, the “FeSSIF” value [4] was 21 µg/mL and the EC50 ([5]; read-out: HEK293-Blue-h TLR7 (EC50 (μM)), HEK293-Blue-hTLR7 cells, 20 hrs incubation, SEAP reporter) was 0.017 µM.

For CCC[P@@](C)(=O)c1nc(N)c2[nH]c(=O)n(Cc3ccc(NCCN(C)C)nc3)c2n1 [Example 18-B, 6-amino-9-[[6-[2-(dimethylamino)ethylamino]-3-pyridyl]methyl]-2-[(R)-methyl(propyl)phosphoryl]-7H-purin-8-one], the solubility kinetic [1] was > 580 µg/mL, the solubility thermodynamic [2] was 4020 µg/mL (≈ 9.3 mM) and the “FaSSIF” value [3] was >3767 µg/mL. The “FeSSIF” value [4] was >5000 µg/mL.

With CC[P@@](C)(=O)c1nc(N)c2[nH]c(=O)n(Cc3ccc(N4CCN(C)CC4)nc3)c2n1 [Example 13-A, 6-amino-2-[(R)-ethyl(methyl)phosphoryl]-9-[[6-(4-methylpiperazin-1-yl)-3-pyridyl]methyl]-7H-purin-8-one] the solubility kinetic [1] was > 530 µg/mL, the solubility thermodynamic [2] was 2380 µg/mL (≈ 5.53 mM) and the “FaSSIF” value [3] was 2368 µg/mL. The “FeSSIF” value [4] was 4672 µg/mL.

In the case of CC[P@@](C)(=O)c1nc(N)c2[nH]c(=O)n(Cc3ccc(NCCN(C)C)nc3)c2n1 [Example 15-A, 6-amino-9-[[6-[2-(dimethylamino)ethylamino]-3-pyridyl]methyl]-2-[(R)-ethyl(methyl)phosphoryl]-7H-purin-8-one], the solubility kinetic [1] is reported as > 560 µg/mL, the solubility thermodynamic [2] is reported as 4060 µg/mL (≈ 9.7 mM) and the “FaSSIF” value [3] is reported as 3074 µg/mL. The “FeSSIF” value [4] was 3987 µg/mL and the EC50 [5] was 0.018 µM.

For CN(C)CCOc1ccc(Cn2c(=O)[nH]c3c(N)nc(P(C)(C)=O)nc32)cn1 [Example 2, 6-amino-9-[[6-[2-(dimethylamino)ethoxy]-3-pyridyl]methyl]-2-dimethylphosphoryl-7H-purin-8-one], the solubility kinetic [1] was > 540 µg/mL, the solubility thermodynamic [2] was 2780 µg/mL (≈ 6.85 mM) and the “FaSSIF” value [3] was 3519 µg/mL. For the same molecule, the “FeSSIF” value [4] was 4801 µg/mL and the EC50 [5] was 0.019 µM.

For CCC[P@](C)(=O)c1nc(N)c2[nH]c(=O)n(Cc3ccc(NCCN(C)C)nc3)c2n1 [Example 18-A, 6-amino-9-[[6-[2-(dimethylamino)ethylamino]-3-pyridyl]methyl]-2-[(S)-methyl(propyl)phosphoryl]-7H-purin-8-one], the solubility kinetic [1] was > 580 µg/mL, the solubility thermodynamic [2] was 3000 µg/mL (≈ 6.94 mM) and the “FaSSIF” value [3] was 3436 µg/mL. The “FeSSIF” value [4] was 4536 µg/mL.

With CN(C)CCNc1ccc(Cn2c(=O)[nH]c3c(N)nc(P(C)(C)=O)nc32)cn1 [Example 1, 6-amino-9-[[6-[2-(dimethylamino)ethylamino]-3-pyridyl]methyl]-2-dimethylphosphoryl-7H-purin-8-one] the solubility kinetic [1] was > 540 µg/mL, the solubility thermodynamic [2] was 929 µg/mL (≈ 2.3 mM) and the “FaSSIF” value [3] was 2527 µg/mL. For the same molecule, the “FeSSIF” value [4] was 3077 µg/mL and the EC50 [5] was 0.034 µM.

In the case of CC[P@](C)(=O)c1nc(N)c2[nH]c(=O)n(Cc3ccc(NCCN(C)C)nc3)c2n1 [Example 15-B, 6-amino-9-[[6-[2-(dimethylamino)ethylamino]-3-pyridyl]methyl]-2-[(S)-ethyl(methyl)phosphoryl]-7H-purin-8-one], the solubility kinetic [1] is reported as > 560 µg/mL, the solubility thermodynamic [2] is reported as > 4970 µg/mL and the “FaSSIF” value [3] is reported as >3733 µg/mL. The “FeSSIF” value [4] was >4267 µg/mL and the EC50 [5] was 0.012 µM.

For CC[P@](C)(=O)c1nc(N)c2[nH]c(=O)n(Cc3ccc(OCCN(C)C)nc3)c2n1 [Example 16-B, 6-amino-9-[[6-[2-(dimethylamino)ethoxy]-3-pyridyl]methyl]-2-[(S)-ethyl(methyl)phosphoryl]-7H-purin-8-one], the solubility kinetic [1] was > 560 µg/mL, the solubility thermodynamic [2] was 3450 µg/mL (≈ 8.23 mM) and the “FaSSIF” value [3] was 784 µg/mL. For the same molecule, the “FeSSIF” value [4] was 1464 µg/mL.
